Where “and” joins values, the source holds several entries; their conditions need not be identical. Equal entries are not always repeated.
Columns and labels:
Format in all cases: cell-based
[1] = target: panel of 320 non-olfactory GPCRs (Homo sapiens, UniProt O15354)
[2] = target: panel of 320 non-olfactory GPCRs (Homo sapiens, UniProt O75388)
[3] = target: panel of 320 non-olfactory GPCRs (Homo sapiens, UniProt P21918)
[4] = target: panel of 320 non-olfactory GPCRs (Homo sapiens, UniProt P25089)
[5] = target: panel of 320 non-olfactory GPCRs (Homo sapiens, UniProt P28335, I156V/I160V)
[6] = target: panel of 320 non-olfactory GPCRs (Homo sapiens, UniProt P28335, I156V/I160V/N158G)
[7] = target: panel of 320 non-olfactory GPCRs (Homo sapiens, UniProt P28566)
[8] = target: panel of 320 non-olfactory GPCRs (Homo sapiens, UniProt P30550)
[9] = target: panel of 320 non-olfactory GPCRs (Homo sapiens, UniProt P31391)
[10] = target: panel of 320 non-olfactory GPCRs (Homo sapiens, UniProt P35408)
[11] = target: panel of 320 non-olfactory GPCRs (Homo sapiens, UniProt P35410)
[12] = target: panel of 320 non-olfactory GPCRs (Homo sapiens, UniProt P41597)
[13] = target: panel of 320 non-olfactory GPCRs (Homo sapiens, UniProt P41968)
[14] = target: panel of 320 non-olfactory GPCRs (Homo sapiens, UniProt P46095)
[15] = target: panel of 320 non-olfactory GPCRs (Homo sapiens, UniProt P47775)
[16] = target: panel of 320 non-olfactory GPCRs (Homo sapiens, UniProt P47871)
[17] = target: panel of 320 non-olfactory GPCRs (Homo sapiens, UniProt P47898)
[18] = target: panel of 320 non-olfactory GPCRs (Homo sapiens, UniProt P51685)
[19] = target: panel of 320 non-olfactory GPCRs (Homo sapiens, UniProt Q01726)
[20] = target: panel of 320 non-olfactory GPCRs (Homo sapiens, UniProt Q16602)
[21] = target: panel of 320 non-olfactory GPCRs (Homo sapiens, UniProt Q5T6X5)
[22] = target: panel of 320 non-olfactory GPCRs (Homo sapiens, UniProt Q6QNK2)
[23] = target: panel of 320 non-olfactory GPCRs (Homo sapiens, UniProt Q86Y34)
[24] = target: panel of 320 non-olfactory GPCRs (Homo sapiens, UniProt Q8IZF2)
[25] = target: panel of 320 non-olfactory GPCRs (Homo sapiens, UniProt Q8IZF3)
[26] = target: panel of 320 non-olfactory GPCRs (Homo sapiens, UniProt Q8IZP9)
[27] = target: panel of 320 non-olfactory GPCRs (Homo sapiens, UniProt Q8NDV2)
[28] = target: panel of 320 non-olfactory GPCRs (Homo sapiens, UniProt Q8TDT2)
[29] = target: panel of 320 non-olfactory GPCRs (Homo sapiens, UniProt Q8TDV2)
[30] = target: panel of 320 non-olfactory GPCRs (Homo sapiens, UniProt Q96LB1)
[31] = target: panel of 320 non-olfactory GPCRs (Homo sapiens, UniProt Q96P68)
[32] = target: panel of 320 non-olfactory GPCRs (Homo sapiens, UniProt Q99788)
[33] = target: panel of 320 non-olfactory GPCRs (Homo sapiens, UniProt Q9BZJ6)
[34] = target: panel of 320 non-olfactory GPCRs (Homo sapiens, UniProt Q9HC97)
[35] = target: panel of 320 non-olfactory GPCRs (Homo sapiens, UniProt Q9NQS5)
[36] = target: panel of 320 non-olfactory GPCRs (Homo sapiens, UniProt Q9Y5X5)
[37] = target: panel of 320 non-olfactory GPCRs (Homo sapiens, UniProt Q9Y5Y3)
Further: test concentration or dose not given here.

Chain of panel of 320 non-olfactory GPCRs (Homo sapiens, UniProt Q96LB1) (Q96LB1 whole entry): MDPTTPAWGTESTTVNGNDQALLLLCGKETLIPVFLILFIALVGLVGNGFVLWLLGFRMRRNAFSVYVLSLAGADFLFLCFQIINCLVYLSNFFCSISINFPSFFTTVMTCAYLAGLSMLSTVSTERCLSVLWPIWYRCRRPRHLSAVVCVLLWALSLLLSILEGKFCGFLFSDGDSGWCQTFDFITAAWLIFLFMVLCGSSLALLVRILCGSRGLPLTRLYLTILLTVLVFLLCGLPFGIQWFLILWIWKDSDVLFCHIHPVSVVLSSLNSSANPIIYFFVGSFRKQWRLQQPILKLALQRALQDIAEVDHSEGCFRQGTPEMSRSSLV
Chain of panel of 320 non-olfactory GPCRs (Homo sapiens, UniProt Q8TDV2) (Q8TDV2 whole entry): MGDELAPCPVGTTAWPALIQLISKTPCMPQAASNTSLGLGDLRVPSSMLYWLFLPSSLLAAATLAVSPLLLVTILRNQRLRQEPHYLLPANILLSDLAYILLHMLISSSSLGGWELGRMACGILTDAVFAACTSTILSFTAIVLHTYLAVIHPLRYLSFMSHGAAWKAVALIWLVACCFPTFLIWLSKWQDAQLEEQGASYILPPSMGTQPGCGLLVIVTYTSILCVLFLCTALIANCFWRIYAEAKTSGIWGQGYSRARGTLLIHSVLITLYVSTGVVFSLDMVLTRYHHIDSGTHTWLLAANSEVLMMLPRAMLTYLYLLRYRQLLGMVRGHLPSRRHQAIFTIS
Chain of panel of 320 non-olfactory GPCRs (Homo sapiens, UniProt P28335, I156V/I160V/N158G) (P28335 33-458 I156V/N158G/I160V): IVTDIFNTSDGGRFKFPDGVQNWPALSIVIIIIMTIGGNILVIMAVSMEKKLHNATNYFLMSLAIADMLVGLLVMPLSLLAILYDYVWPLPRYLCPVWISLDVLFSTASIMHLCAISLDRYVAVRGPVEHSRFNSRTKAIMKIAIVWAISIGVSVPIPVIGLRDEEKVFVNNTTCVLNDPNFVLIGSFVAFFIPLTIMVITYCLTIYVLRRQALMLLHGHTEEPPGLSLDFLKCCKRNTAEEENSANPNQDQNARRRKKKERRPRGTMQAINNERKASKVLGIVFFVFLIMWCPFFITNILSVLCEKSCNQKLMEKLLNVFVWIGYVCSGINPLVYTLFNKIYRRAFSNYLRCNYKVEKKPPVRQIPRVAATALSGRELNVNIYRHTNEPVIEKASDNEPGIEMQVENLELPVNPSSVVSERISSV
Chain of panel of 320 non-olfactory GPCRs (Homo sapiens, UniProt Q99788) (Q99788 whole entry): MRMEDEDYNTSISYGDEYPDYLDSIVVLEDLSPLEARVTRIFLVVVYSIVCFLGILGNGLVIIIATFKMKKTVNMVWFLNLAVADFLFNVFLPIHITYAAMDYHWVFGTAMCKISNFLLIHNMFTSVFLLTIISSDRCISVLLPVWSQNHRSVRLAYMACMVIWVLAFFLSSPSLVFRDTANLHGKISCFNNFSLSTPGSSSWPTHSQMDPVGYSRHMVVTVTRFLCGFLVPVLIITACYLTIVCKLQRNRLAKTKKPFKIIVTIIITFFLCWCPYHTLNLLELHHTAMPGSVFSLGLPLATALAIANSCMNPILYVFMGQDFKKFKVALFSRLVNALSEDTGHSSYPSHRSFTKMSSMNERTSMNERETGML
Chain of panel of 320 non-olfactory GPCRs (Homo sapiens, UniProt Q8IZF2) (Q8IZF2 22-1346): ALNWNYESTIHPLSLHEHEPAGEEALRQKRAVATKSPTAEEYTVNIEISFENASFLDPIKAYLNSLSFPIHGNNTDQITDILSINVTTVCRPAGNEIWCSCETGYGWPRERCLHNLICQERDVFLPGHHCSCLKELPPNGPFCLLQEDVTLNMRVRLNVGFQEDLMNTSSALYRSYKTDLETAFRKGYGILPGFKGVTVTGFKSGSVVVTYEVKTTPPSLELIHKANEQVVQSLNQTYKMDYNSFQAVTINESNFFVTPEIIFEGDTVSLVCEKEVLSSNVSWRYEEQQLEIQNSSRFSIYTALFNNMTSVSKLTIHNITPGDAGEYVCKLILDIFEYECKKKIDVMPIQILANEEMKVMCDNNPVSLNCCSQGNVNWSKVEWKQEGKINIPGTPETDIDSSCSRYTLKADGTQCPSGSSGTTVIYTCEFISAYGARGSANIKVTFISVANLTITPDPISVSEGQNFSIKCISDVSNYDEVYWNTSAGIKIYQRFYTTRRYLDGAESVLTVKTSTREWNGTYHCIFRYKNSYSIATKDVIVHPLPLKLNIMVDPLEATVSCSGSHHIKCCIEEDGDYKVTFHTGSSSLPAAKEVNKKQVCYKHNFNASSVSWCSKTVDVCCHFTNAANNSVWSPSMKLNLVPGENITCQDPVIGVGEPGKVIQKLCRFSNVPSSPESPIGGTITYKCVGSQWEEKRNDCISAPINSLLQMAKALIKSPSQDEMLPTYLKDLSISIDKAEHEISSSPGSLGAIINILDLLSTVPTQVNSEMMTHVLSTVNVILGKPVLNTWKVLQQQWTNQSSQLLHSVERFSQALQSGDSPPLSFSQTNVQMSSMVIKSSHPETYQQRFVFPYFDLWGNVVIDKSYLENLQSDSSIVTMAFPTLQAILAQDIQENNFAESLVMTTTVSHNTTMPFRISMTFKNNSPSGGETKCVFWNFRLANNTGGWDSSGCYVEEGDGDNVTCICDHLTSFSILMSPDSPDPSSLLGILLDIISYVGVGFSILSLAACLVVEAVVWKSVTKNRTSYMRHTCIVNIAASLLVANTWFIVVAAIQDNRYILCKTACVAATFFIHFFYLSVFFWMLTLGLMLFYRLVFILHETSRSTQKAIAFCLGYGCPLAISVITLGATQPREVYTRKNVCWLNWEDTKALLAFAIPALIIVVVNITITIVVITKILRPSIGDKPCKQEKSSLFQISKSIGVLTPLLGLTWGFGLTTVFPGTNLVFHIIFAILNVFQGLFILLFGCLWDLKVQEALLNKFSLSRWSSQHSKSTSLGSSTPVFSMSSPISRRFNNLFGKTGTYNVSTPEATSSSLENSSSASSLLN
Chain of panel of 320 non-olfactory GPCRs (Homo sapiens, UniProt P35410) (P35410 whole entry): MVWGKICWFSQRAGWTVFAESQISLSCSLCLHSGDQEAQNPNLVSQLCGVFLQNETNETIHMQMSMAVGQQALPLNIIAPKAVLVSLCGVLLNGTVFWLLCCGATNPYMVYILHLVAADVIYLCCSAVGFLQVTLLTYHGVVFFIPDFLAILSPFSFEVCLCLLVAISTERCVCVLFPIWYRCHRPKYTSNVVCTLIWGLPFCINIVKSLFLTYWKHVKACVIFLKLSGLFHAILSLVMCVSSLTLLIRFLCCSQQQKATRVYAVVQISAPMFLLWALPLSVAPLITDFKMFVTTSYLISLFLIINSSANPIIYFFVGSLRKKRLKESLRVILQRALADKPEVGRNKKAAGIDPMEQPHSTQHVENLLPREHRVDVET
Chain of panel of 320 non-olfactory GPCRs (Homo sapiens, UniProt Q5T6X5) (Q5T6X5 19-926): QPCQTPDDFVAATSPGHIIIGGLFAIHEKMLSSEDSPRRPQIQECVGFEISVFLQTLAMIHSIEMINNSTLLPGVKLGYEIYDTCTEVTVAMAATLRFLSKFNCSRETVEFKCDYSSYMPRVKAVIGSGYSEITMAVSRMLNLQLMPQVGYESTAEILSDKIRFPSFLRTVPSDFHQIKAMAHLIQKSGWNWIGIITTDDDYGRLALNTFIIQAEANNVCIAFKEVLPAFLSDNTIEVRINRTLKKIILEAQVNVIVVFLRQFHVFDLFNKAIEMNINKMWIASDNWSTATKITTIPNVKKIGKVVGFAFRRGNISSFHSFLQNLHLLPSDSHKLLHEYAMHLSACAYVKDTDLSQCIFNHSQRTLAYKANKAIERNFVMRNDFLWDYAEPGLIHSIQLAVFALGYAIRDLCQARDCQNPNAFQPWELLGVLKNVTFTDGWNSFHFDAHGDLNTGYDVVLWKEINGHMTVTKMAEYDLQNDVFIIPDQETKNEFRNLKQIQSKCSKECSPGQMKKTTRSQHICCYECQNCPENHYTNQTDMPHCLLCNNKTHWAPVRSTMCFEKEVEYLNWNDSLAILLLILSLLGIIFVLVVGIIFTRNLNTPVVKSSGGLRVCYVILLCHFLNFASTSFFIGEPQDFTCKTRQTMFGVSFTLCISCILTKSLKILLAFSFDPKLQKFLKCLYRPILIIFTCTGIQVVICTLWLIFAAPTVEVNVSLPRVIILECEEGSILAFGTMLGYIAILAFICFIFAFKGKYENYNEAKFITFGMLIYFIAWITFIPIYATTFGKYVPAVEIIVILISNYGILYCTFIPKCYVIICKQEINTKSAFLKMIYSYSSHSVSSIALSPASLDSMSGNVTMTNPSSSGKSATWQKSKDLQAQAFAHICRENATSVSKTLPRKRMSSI
Chain of panel of 320 non-olfactory GPCRs (Homo sapiens, UniProt Q9NQS5) (Q9NQS5 whole entry): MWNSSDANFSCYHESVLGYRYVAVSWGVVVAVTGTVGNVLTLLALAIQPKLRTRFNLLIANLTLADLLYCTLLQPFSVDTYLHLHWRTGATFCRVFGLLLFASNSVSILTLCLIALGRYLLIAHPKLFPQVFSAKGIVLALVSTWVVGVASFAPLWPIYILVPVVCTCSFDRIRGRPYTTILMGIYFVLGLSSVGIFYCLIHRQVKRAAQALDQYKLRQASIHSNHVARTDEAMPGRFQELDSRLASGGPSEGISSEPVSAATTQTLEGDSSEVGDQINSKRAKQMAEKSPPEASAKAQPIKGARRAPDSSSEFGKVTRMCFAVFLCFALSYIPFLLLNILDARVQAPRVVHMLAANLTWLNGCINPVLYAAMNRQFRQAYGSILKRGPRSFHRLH
Chain of panel of 320 non-olfactory GPCRs (Homo sapiens, UniProt P41968) (P41968 whole entry): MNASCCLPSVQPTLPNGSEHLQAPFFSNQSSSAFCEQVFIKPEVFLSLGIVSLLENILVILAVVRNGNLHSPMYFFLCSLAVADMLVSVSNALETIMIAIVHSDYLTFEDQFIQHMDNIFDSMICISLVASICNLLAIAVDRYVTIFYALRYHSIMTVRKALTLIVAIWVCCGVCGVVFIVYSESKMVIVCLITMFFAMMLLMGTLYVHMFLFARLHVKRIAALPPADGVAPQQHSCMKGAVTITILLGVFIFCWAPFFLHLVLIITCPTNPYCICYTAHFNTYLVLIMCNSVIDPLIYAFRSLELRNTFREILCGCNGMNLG
Chain of panel of 320 non-olfactory GPCRs (Homo sapiens, UniProt P28335, I156V/I160V) (P28335 33-458 I156V/I160V): as the sequence (P28335 33-458 I156V/N158G/I160V) above, with G126N counted along it

**Q.** Which results are given for `COC(=O)[C@@](C)(NC(=O)c1cc(C)n(-c2cccc(C(F)(F)F)c2)n1)c1cccs1` [‘1350]?
**A.** Fold of Basal RLU [1]: 1 fold and 0.8 fold and 0.9 fold and 1.3 fold; Fold of Basal RLU [2]: 1.1 fold and 0.9 fold and 1 fold and 0.8 fold; Fold of Basal RLU [3]: 0.5 and 0.4 and 0.6; Fold of Basal RLU [4]: 1 fold and 1.1 fold; Fold of Basal RLU [5]: 0.4 and 0.8; Fold of Basal RLU [6]: 0.9 fold and 1.1 fold and 0.7 fold and 1 fold; Fold of Basal RLU [7]: 1.3 fold and 1.5 fold and 1.2 fold; Fold of Basal RLU [8]: 0.8 fold and 1.2 fold; Fold of Basal RLU [9]: 2.3 and 2 and 1.6; Fold of Basal RLU [10]: 1.7 fold and 1.2 fold and 1.5 fold; Fold of Basal RLU [11]: 1.9 and 1.3 and 1 and 1.2; Fold of Basal RLU [12]: 0.9 and 1.4 and 1; Fold of Basal RLU [13]: 1.3 and 0.9 and 1.1 and 0.7; Fold of Basal RLU [14]: 1.1 fold and 0.8 fold and 1 fold; Fold of Basal RLU [15]: 1.5 fold and 1.3 fold and 0.8 fold; Fold of Basal RLU [16]: 0.8 and 1 and 1.2 and 1.1; Fold of Basal RLU [17]: 1.5 fold and 2.2 fold; Fold of Basal RLU [18]: 1.6 and 1.3 and 1.1 and 1; Fold of Basal RLU [19]: 0.7 and 0.6 and 1; Fold of Basal RLU [20]: 0.4 and 0.7 and 0.6; Fold of Basal RLU [21]: 0.7 fold and 0.9 fold and 1.1 fold; Fold of Basal RLU [22]: 0.7 fold and 0.9 fold and 1 fold and 1.1 fold; Fold of Basal RLU [23]: 2.1 and 1.2 and 1.1; Fold of Basal RLU [24]: 1.1 fold and 1.3 fold; Fold of Basal RLU [25]: 1.1 fold and 0.9 fold; Fold of Basal RLU [26]: 1.1 fold and 1.2 fold and 0.9 fold and 0.7 fold; Fold of Basal RLU [27]: 1.6 fold and 1.8 fold and 1.3 fold; Fold of Basal RLU [28]: 1.2 fold and 1.1 fold and 0.8 fold and 1.5 fold; Fold of Basal RLU [29]: 1.2 and 0.6 and 0.9; Fold of Basal RLU [30]: 1.7 fold and 1.5 fold and 1 fold and 1.1 fold; Fold of Basal RLU [31]: 1.1 fold and 1.3 fold and 1.6 fold; Fold of Basal RLU [32]: 1.1 and 1 and 1.2; Fold of Basal RLU [33]: 1.1 fold and 1 fold and 0.8 fold; Fold of Basal RLU [34]: 1 fold and 0.9 fold and 1.1 fold; Fold of Basal RLU [35]: 1 fold and 1.1 fold and 1.2 fold and 1.4 fold; Fold of Basal RLU [36]: 0.3; Fold of Basal RLU [37]: 0.8 and 1.2 and 1.3 and 1

**Q.** `Cc1cc(C(=O)NC(C)(c2ccco2)c2ccco2)nn1-c1cccc(C(F)(F)F)c1` [‘4936] was tested. Which “Fold of Basal RLU” value [1] did it give?
**A.** 1 fold and 1.1 fold and 1.2 fold

**Q.** What about the “Fold of Basal RLU” value [2] of the same compound?
**A.** 1.4 fold and 1.1 fold and 1.3 fold and 1.2 fold

**Q.** What about the “Fold of Basal RLU” value [3] of the same compound?
**A.** 1.1 and 1.3 and 1.4

**Q.** And the “Fold of Basal RLU” value [4]?
**A.** 1.2 fold and 1.3 fold and 1.8 fold

**Q.** And the “Fold of Basal RLU” value [5]?
**A.** 0.7 and 0.4 and 0.8

**Q.** What about the “Fold of Basal RLU” value [6] of the same compound?
**A.** 0.8 fold and 1 fold and 1.3 fold

**Q.** And the “Fold of Basal RLU” value [7]?
**A.** 1.4 fold and 1.3 fold and 1.5 fold and 2 fold

**Q.** And the “Fold of Basal RLU” value [8]?
**A.** 0.8 fold and 0.6 fold

**Q.** And the “Fold of Basal RLU” value [9]?
**A.** 1.9 and 1.7 and 2.4 and 1.5

**Q.** What about the “Fold of Basal RLU” value [10] of the same compound?
**A.** 1.2 fold and 0.9 fold and 1 fold and 1.3 fold

**Q.** What about the “Fold of Basal RLU” value [11] of the same compound?
**A.** 0.8 and 0.4 and 0.6

**Q.** And the “Fold of Basal RLU” value [12]?
**A.** 0.9 and 0.8 and 1

**Q.** What about the “Fold of Basal RLU” value [13] of the same compound?
**A.** 1.5 and 0.9

**Q.** And the “Fold of Basal RLU” value [14]?
**A.** 1.3 fold and 1 fold and 1.2 fold and 1.1 fold

**Q.** What about the “Fold of Basal RLU” value [15] of the same compound?
**A.** 1.4 fold and 2.1 fold and 1.5 fold and 1.8 fold

**Q.** What about the “Fold of Basal RLU” value [16] of the same compound?
**A.** 1.3 and 1.1 and 1.4 and 0.8

**Q.** What about the “Fold of Basal RLU” value [17] of the same compound?
**A.** 2.1 fold and 2.3 fold

**Q.** What about the “Fold of Basal RLU” value [18] of the same compound?
**A.** 1.5 and 1.1 and 1.2 and 0.9

**Q.** And the “Fold of Basal RLU” value [19]?
**A.** 1.2 and 0.8 and 0.7 and 1.1

**Q.** And the “Fold of Basal RLU” value [20]?
**A.** 1 and 0.6 and 0.5

**Q.** And the “Fold of Basal RLU” value [21]?
**A.** 0.9 fold and 1.1 fold and 0.6 fold and 1 fold

**Q.** And the “Fold of Basal RLU” value [22]?
**A.** 0.9 fold

**Q.** What about the “Fold of Basal RLU” value [23] of the same compound?
**A.** 2.2 and 2.3 and 1.6 and 3.1

**Q.** And the “Fold of Basal RLU” value [24]?
**A.** 2.1 fold and 2.4 fold and 1.6 fold and 2.5 fold

**Q.** And the “Fold of Basal RLU” value [25]?
**A.** 1 fold and 1.2 fold and 0.6 fold

**Q.** And the “Fold of Basal RLU” value [26]?
**A.** 0.8 fold and 0.6 fold and 1 fold

**Q.** What about the “Fold of Basal RLU” value [27] of the same compound?
**A.** 2 fold and 1.4 fold and 2.8 fold and 1.7 fold

**Q.** And the “Fold of Basal RLU” value [28]?
**A.** 1.1 fold and 0.9 fold and 1 fold

**Q.** And the “Fold of Basal RLU” value [29]?
**A.** 1 and 0.6 and 1.2

**Q.** And the “Fold of Basal RLU” value [30]?
**A.** 1.3 fold and 1.2 fold and 1.7 fold and 1.4 fold

**Q.** What about the “Fold of Basal RLU” value [31] of the same compound?
**A.** 1.3 fold and 1.5 fold and 2.1 fold

**Q.** And the “Fold of Basal RLU” value [32]?
**A.** 1.1 and 1 and 0.9

**Q.** And the “Fold of Basal RLU” value [33]?
**A.** 1.1 fold and 1.2 fold and 0.8 fold and 0.9 fold

**Q.** What about the “Fold of Basal RLU” value [34] of the same compound?
**A.** 1 fold and 1.4 fold and 0.9 fold

**Q.** And the “Fold of Basal RLU” value [35]?
**A.** 1 fold and 0.9 fold and 1.6 fold

**Q.** And the “Fold of Basal RLU” value [36]?
**A.** 0.4 and 0.6 and 0.5 and 0.3

**Q.** And the “Fold of Basal RLU” value [37]?
**A.** 1.6 and 1.2 and 1.5

Source: paper PMC11882969 (Nature Communications, 2025)
